Assay results taken from patent US11866430B2, “Naphthyridinone compounds useful as T cell activators” (priority 2018, dated 2024).
Like-named read-outs stand apart in the source and are kept apart here.

Experiments:
[1] = test system: pre-activated CD4 T cells and Raji cells; experiment: Raji CD4 T Cell IL2 Assay; format: cell-based
human DGKα [2] = target: T1, human DGKα (Homo sapiens (Human), UniProt P23743); experiment: biochemical
Procedure, shortened: (§1)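 Enzymes were baculovirus/Sf9 full-length human DGKα or DGKζ with His tag. The substrate was PS/DAG in octyl glucoside micelles, in MOPS pH 7.5 buffer with NaCl, MgCl2, CaCl2 and DTT.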

human DGKα [3] = target: T1, human DGKα; experiment: DGKα LIPGLO assay (extruded liposome substrate); format: biochemical
Procedure: The DGKα and DGKζ reactions were performed using either extruded liposome (DGKα and DGKζ LIPGLO assays) or detergent/lipid micelle substrate (DGKα and DGKζ assays). The reactions were carried out in 50 mM MOPS pH 7.5, 100 mM NaCl, 10 mM MgCl2, 1 μM CaCl2, and 1 mM DTT (assay buffer). The reactions using a detergent/lipid micelle substrate also contained 50 mM octyl B-D-glucopyranoside. […] The lipid substrate concentrations were […], 0.25 mM DAG, and 2.75 mM PC for the extruded liposome reactions.
(§2) The compound inhibition studies were carried out as follows: 50 nL droplets of each test compound (top concentration 10 mM with 11 point, 3-fold dilution series for each compound) solubilized in DMSO were transferred to wells of a white 1536 well plate (Corning 3725). A 5 mL enzyme/substrate solution at 2× final reaction concentration was prepared by combining 2.5 mL 4× enzyme solution (20 nM DGKα or DGKζ (prepared as described below) in assay buffer) and 2.5 mL of either 4× liposome or 4× detergent/lipid micelle solution (compositions described below) and incubated at room temperature for 10 minutes. Next, 1 μL 2× enzyme/substrate solution was added to wells containing the test compound and reactions were initiated with the addition of 1 μL 300 uM ATP. The reactions were allowed to proceed for 1 hr, after which 2 μL Glo Reagent (Promega V9101) was added and incubated for 40 minutes. Next, 4 μL Kinase Detection Reagent was added and incubated for 30 minutes. Luminescence was recorded using an EnVision microplate reader. […] The compounds were evaluated at 11 concentrations to determine IC50.
(§3) The PC, DAG, and PS were dissolved in chloroform, combined, and dried in vacuo to a thin film. The lipids were hydrated to 20 mM in 50 mM MOPS pH 7.5, 100 mM NaCl, 5 mM MgCl2, and were freeze-thawed five times. The lipid suspension was extruded through a 100 nm polycarbonate filter eleven times. […] The liposome preparation was stored at 4° C. for as long as four weeks.
Human DGK-alpha-TVMV-His-pFBgate and human DCK-zeta-transcript variant-2-TVMV-His-pFBgate baculovirus samples were generated using the Bac-to-Bac baculovirus expression system (Invitrogen) according to the manufacturer's protocol. The DNA used for expression of DGK-alpha and DGK-zeta have SEQ ID NOs: 1 and 3, respectively. Baculovirus amplification was achieved using infected Sf9 cells at 1:1500 virus/cell ratios, and grown for 65 hours at 27° C. post-transfection.
(§4) The expression scale up for each protein was carried out in the Cellbag 50 L WAVE-Bioreactor System 20/50 from GE Healthcare Bioscience. 12 L of 2×10^6 cells/mL Sf9 cells (Expression System, Davis, Calif.) grown in ESF921 insect medium (Expression System) were infected with virus stock at 1:200 virus/cell ratios, and grown for 66-68 hours at 27° C. post-infection. The infected cell culture was harvested by centrifugation at 2000 rpm for 20 min 4° C. in a SORVALL® RC12BP centrifuge. The cell pellets were stored at −70° C. until purification.
Full length human DGKα and DGKζ, each expressed containing a TVMV-cleavable C-terminal Hexa-His tag sequence (SEQ ID NOs: 2 and 4, respectively) and produced as described above, were purified from Sf) baculovirus-infected insect cell paste. The cells were lysed using nitrogen cavitation method with a nitrogen bomb (Parr Instruments), and the lysates were clarified by centrifugation. […] The three steps column chromatography included nickel affinity resin capture (i.e. HisTrap FF crude, GE Healthcare), followed by size exclusion chromatography (i.e. HiLoad 26/600 Superdex 200 prep grade, GE Healthcare for DGK-alpha, and HiPrep 26/600 Sephacryl S 300_HR, GE Healthcare for DGK-zeta). The third step was ion exchange chromatography, and differed for the two isoforms.

human DGKζ [4] = target: T2, human DGKζ (Homo sapiens (Human), UniProt Q13574); experiment: DGKζ assay (detergent/lipid micelle substrate); format: biochemical
Procedure, shortened: as §1

human DGKζ [5] = target: T2, human DGKζ; experiment: DGKζ LIPGLO assay (extruded liposome substrate); format: biochemical
Procedure: The DGKα and DGKζ reactions were performed using either extruded liposome (DGKα and DGKζ LIPGLO assays) or detergent/lipid micelle substrate (DGKα and DGKζ assays). The reactions were carried out in 50 mM MOPS pH 7.5, 100 mM NaCl, 10 mM MgCl2, 1 μM CaCl2, and 1 mM DTT (assay buffer). The reactions using a detergent/lipid micelle substrate also contained 50 mM octyl B-D-glucopyranoside.
as §2, with “A” for “The compound inhibition studies were carried out as follows: 50 nL droplets of each test compound (top concentration 10 mM with 11 point, 3-fold dilution series for each compound) solubilized in DMSO were transferred to wells of a white 1536 well plate (Corning 3725). A”
as §3
Baculovirus amplification was achieved using infected Sf9 cells at 1:1500 virus/cell ratios, and grown for 65 hours at 27° C. post-transfection.
as §4
The cells were lysed using nitrogen cavitation method with a nitrogen bomb (Parr Instruments), and the lysates were clarified by centrifugation. […] The three steps column chromatography included nickel affinity resin capture (i.e. HisTrap FF crude, GE Healthcare), followed by size exclusion chromatography (i.e. HiLoad 26/600 Superdex 200 prep grade, GE Healthcare for DGK-alpha, and HiPrep 26/600 Sephacryl S 300_HR, GE Healthcare for DGK-zeta). The third step was ion exchange chromatography, and differed for the two isoforms. DGKα was polished using Q-Sepharose anion exchange chromatography (GE Healthcare). DGKζ was polished using SP Sepharose cation exchange chromatography (GE Healthcare). The proteins were delivered at concentrations of ≥2 mg/mL. The formulation buffers were identical for both proteins: 50 mM Hepes, pH 7.2, 500 mM NaCl, 10% v/v glycerol, 1 mM TCEP, and 0.5 mM EDTA.

[6] = detergent/lipid micelle substrate, read-out: DGKα IC50
[7] = detergent/lipid micelle substrate, read-out: DGKζ IC50
[8] = extruded liposome substrate, read-out: DGKζ LIPGLO IC50
[9] = DGKζ IC50, detergent/lipid micelle substrate
[10] = DGKζ LIPGLO IC50, extruded liposome substrate

T1 sequence (P23743 other isoform, or with tags, fused parts or gaps): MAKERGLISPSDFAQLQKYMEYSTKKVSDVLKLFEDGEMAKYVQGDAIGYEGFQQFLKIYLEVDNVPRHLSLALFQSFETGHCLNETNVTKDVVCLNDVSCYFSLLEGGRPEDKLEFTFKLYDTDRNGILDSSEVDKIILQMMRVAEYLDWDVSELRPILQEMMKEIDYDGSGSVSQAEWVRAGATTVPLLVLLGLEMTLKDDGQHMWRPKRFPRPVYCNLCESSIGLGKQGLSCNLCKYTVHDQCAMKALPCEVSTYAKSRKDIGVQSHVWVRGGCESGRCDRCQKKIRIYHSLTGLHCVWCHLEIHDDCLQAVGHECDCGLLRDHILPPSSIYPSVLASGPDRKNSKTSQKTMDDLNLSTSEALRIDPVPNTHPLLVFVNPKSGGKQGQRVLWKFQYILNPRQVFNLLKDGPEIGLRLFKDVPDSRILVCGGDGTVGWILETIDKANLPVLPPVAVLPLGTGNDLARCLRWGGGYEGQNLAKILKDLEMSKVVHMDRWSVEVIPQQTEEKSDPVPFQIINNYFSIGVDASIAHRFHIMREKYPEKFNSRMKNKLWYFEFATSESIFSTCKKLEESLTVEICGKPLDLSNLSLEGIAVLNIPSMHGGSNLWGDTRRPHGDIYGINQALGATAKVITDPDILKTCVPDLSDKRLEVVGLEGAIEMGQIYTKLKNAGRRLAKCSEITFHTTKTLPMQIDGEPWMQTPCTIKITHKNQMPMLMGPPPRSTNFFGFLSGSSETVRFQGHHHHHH
T2 sequence (Q13574 other isoform, or with tags, fused parts or gaps): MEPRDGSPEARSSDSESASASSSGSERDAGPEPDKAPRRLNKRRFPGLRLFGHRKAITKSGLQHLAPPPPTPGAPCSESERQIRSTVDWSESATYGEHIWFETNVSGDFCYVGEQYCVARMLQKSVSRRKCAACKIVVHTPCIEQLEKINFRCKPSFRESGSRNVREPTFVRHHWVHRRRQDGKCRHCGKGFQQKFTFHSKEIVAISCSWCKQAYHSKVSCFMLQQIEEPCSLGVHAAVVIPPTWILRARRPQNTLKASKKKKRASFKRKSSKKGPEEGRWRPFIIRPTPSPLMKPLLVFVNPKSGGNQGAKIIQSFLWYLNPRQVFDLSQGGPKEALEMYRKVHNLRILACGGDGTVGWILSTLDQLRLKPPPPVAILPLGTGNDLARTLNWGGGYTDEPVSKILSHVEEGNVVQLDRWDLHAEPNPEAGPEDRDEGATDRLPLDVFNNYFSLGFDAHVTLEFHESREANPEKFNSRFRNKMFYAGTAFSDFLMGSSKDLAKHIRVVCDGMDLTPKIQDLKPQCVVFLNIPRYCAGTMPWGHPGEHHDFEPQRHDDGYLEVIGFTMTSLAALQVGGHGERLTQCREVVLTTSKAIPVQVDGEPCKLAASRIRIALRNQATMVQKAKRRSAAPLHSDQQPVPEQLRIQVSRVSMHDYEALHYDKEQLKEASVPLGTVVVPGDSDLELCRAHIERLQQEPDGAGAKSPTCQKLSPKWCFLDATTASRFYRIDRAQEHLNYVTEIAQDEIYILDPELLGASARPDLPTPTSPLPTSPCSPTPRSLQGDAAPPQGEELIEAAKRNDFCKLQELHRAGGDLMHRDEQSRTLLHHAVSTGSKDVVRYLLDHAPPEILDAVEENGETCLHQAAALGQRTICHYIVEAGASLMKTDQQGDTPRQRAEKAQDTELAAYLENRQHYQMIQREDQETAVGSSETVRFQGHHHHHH

`CCC(c1ccc(F)cc1)N1CCN(c2c(C#N)c(=O)n(C)c3ccc(Br)nc23)CC1` (single isomer, unassigned) [Example 26, 6-bromo-4-{4-[1-(4-fluorophenyl)propyl]piperazin-1-yl}-1-methyl-2-oxo-1,2-dihydro-1,5-naphthyridine-3-carbonitrile] gave an IC50 [1] of 0.14 µM, an IC50 (human DGKα [2]; [6]) of 4.3 µM and an IC50 (human DGKα [3]) of 6.7 µM. The IC50 (human DGKζ [4]; [7]) was 85 µM and the IC50 (human DGKζ [5]; [8]) was 18 µM.

Work on `CCC(c1ccc(F)cc1)N1CCN(c2c(C#N)c(=O)n(C)c3ccc(Br)nc23)CC1` (single isomer, unassigned) [Example 27, 6-bromo-4-{4-[1-(4-fluorophenyl)propyl]piperazin-1-yl}-1-methyl-2-oxo-1,2-dihydro-1,5-naphthyridine-3-carbonitrile] yielded an IC50 [1] of 0.057 µM, an IC50 (human DGKα [2]; [6]) of 0.11 µM and an IC50 (human DGKα [3]) of 0.11 µM. The IC50 (human DGKζ [4]; [7]) was > 240 µM and the IC50 (human DGKζ [5]; [8]) was > 240 µM.

In the case of `CCC(c1ccc(F)cc1)N1CCN(c2c([N+](=O)[O-])c(=O)n(C)c3ccc(C#N)nc23)CC1` (single isomer, unassigned) [Example 33, 8-{4-[1-(4-fluorophenyl)propyl]piperazin-1-yl}-5-methyl-7-nitro-6-oxo-5,6-dihydro-1,5-naphthyridine-2-carbonitrile], the IC50 ([1]; Homo sapiens, Raji) is reported as 0.018 µM, the IC50 (human DGKα [2]; [6]) is reported as 0.75 µM and the IC50 (human DGKα [3]) is reported as 1.7 µM. It also gave an IC50 (human DGKζ [4]; [9]) of 7.6 µM and an IC50 (human DGKζ [5]; [10]) of 1.7 µM.

`CCC(c1ccc(F)cc1)N1CCN(c2c([N+](=O)[O-])c(=O)n(C)c3ccc(C#N)nc23)CC1` (single isomer, unassigned) [Example 34, 8-{4-[1-(4-fluorophenyl)propyl]piperazin-1-yl}-5-methyl-7-nitro-6-oxo-5,6-dihydro-1,5-naphthyridine-2-carbonitrile] showed an IC50 [1] of 0.035 µM, an IC50 (human DGKα [2]; [6]) of 0.18 µM and an IC50 (human DGKα [3]) of 0.29 µM. For the same molecule, the IC50 (human DGKζ [4]; [9]) was 23 µM and the IC50 (human DGKζ [5]; [10]) was 3.4 µM.

For `CC(c1ccc(F)cc1)N1CCN(c2c([N+](=O)[O-])c(=O)n(C)c3ccc(C#N)nc23)CC1` (single isomer, unassigned) [Example 45, 8-(4-(1-(4-fluorophenyl)ethyl)piperazin-1-yl)-5-methyl-7-nitro-6-oxo-5,6-dihydro-1,5-naphthyridine-2-carbonitrile], the IC50 ([1]; Homo sapiens, Raji) was 0.062 µM, the IC50 (human DGKα [2]; [6]) was 0.1 µM and the IC50 (human DGKα [3]) was 0.39 µM. It also gave an IC50 (human DGKζ [4]; [7]) of 36 µM and an IC50 (human DGKζ [5]; [8]) of 6.8 µM.

With `Cn1c(=O)c([N+](=O)[O-])c(N2CCN(C(c3ccc(F)cc3)C3CC3)CC2)c2nc(C#N)ccc21` (single isomer, unassigned) [Example 50, 8-(4-(cyclopropyl(4-fluorophenyl)methyl)piperazin-1-yl)-5-methyl-7-nitro-6-oxo-5,6-dihydro-1,5-naphthyridine-2-carbonitrile] the IC50 [1] was 0.039 µM, the IC50 (human DGKα [2]; [6]) was 0.99 µM and the IC50 (human DGKα [3]) was 2.1 µM. It also gave an IC50 (human DGKζ [4]; [7]) of 39 µM and an IC50 (human DGKζ [5]; [8]) of 5.7 µM.

With `Cn1c(=O)c([N+](=O)[O-])c(N2CCN(C(c3ccc(F)cc3)C3CC3)CC2)c2nc(C#N)ccc21` (single isomer, unassigned) [Example 51, 8-(4-(cyclopropyl(4-fluorophenyl)methyl)piperazin-1-yl)-5-methyl-7-nitro-6-oxo-5,6-dihydro-1,5-naphthyridine-2-carbonitrile] the IC50 [1] was 0.0052 µM, the IC50 (human DGKα [2]; DGKα IC50, detergent/lipid micelle substrate) was 0.18 µM and the IC50 (human DGKα [3]) was 0.33 µM. It also gave an IC50 (human DGKζ [4]; [7]) of 56 µM and an IC50 (human DGKζ [5]; [8]) of 4.7 µM.

In the case of `Cc1cccc(OCc2cncc(C#N)c2)c1C(c1ccc(F)cc1)N1CCN(c2c([N+](=O)[O-])c(=O)n(C)c3ccc(Br)nc23)CC1` (single isomer, unassigned) [Example 90, 5-((2-((4-(6-bromo-1-methyl-3-nitro-2-oxo-1,2-dihydro-1,5-naphthyridin-4-yl)piperazin-1-yl)(4-fluorophenyl)methyl)-3-methylphenoxy)methyl)nicotinonitrile], the IC50 [1] is reported as 0.63 µM, the IC50 (human DGKα [2]; [6]) is reported as 82 µM and the IC50 (human DGKα [3]) is reported as > 240 µM. For the same molecule, the IC50 (human DGKζ [4]; [7]) was 190 µM and the IC50 (human DGKζ [5]; [8]) was 15 µM.

Work on `Cn1c(=O)c([N+](=O)[O-])c(N2CCN(C(c3ccc(F)cc3)c3ccccc3O)CC2)c2nc(C#N)ccc21` (single isomer, unassigned) [Example 99, 8-(4-((4-fluorophenyl)(2-hydroxyphenyl)methyl)piperazin-1-yl)-5-methyl-7-nitro-6-oxo-5,6-dihydro-1,5-naphthyridine-2-carbonitrile] yielded an IC50 [1] of 0.0094 µM, an IC50 (human DGKα [2]; [6]) of 0.41 µM and an IC50 (human DGKα [3]) of 0.72 µM. The IC50 (human DGKζ [4]; [7]) was 0.67 µM and the IC50 (human DGKζ [5]; [8]) was 0.04 µM.

In the case of `COc1cc(F)ccc1C(c1ccc(F)cc1)N1CCN(c2c([N+](=O)[O-])c(=O)n(C)c3ccc(C#N)nc23)CC1` (single isomer, unassigned) [Example 125, 8-(4-((4-fluoro-2-methoxyphenyl)(4-fluorophenyl)methyl)piperazin-1-yl)-5-methyl-7-nitro-6-oxo-5,6-dihydro-1,5-naphthyridine-2-carbonitrile], the IC50 ([1]; Homo sapiens, Raji) is reported as 0.023 µM, the IC50 (human DGKα [2]; [6]) is reported as 4.3 µM and the IC50 (human DGKα [3]) is reported as 11 µM. The IC50 (human DGKζ [4]; [9]) was 7.9 µM and the IC50 (human DGKζ [5]; [10]) was 2.3 µM.

For `C#CCn1c(=O)c([N+](=O)[O-])c(N2CCN(C(c3ccc(F)cc3)c3ccc(F)cc3OC)CC2)c2nc(C#N)ccc21` (single isomer, unassigned) [Example 127, 8-(4-((4-fluoro-2-methoxyphenyl)(4-fluorophenyl)methyl)piperazin-1-yl)-7-nitro-6-oxo-5-(prop-2-yn-1-yl)-5,6-dihydro-1,5-naphthyridine-2-carbonitrile], the IC50 [1] was 0.0064 µM, the IC50 (human DGKα [2]; [6]) was 4.2 µM and the IC50 (human DGKα [3]) was 2.9 µM. For the same molecule, the IC50 (human DGKζ [4]; [7]) was 0.25 µM and the IC50 (human DGKζ [5]; [8]) was 0.03 µM.
